Measured values published in patent publication US20170190671A1, “BIS(ARYL)CATECHOL DERIVATIVES AS HERBICIDES” (E I DU PONT DE NEMOURS AND COMPANY, priority 2014, published 2017).

Columns and labels:
Format in all cases: in vivo
[1] = system: pigweed (Amaranthus retroflexus); assay: Test A postemergence; settings: Amaranthus retroflexus, post-emergence, 240 h, 0 to 100 scale, read-out: Plant response rating, Pigweed
Procedure, shortened: (§1)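 Compounds in non-phytotoxic solvent with surfactant applied as soil spray preemergence, or postemergence to plants 2-10 cm at one- to two-leaf stage, in loam/sand. After approximately 10 days in greenhouse, injury rated visually versus untreated controls, 0 (no effect) to 100 (complete control).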

[2] = system: blackgrass (Alopecurus myosuroides); assay: Test A postemergence; settings: Alopecurus myosuroides, post-emergence, 240 h, 0 to 100 scale, read-out: Plant response rating, Blackgrass
Procedure, shortened: as §1

[3] = system: ragweed (common ragweed, Ambrosia elatior); assay: Test A postemergence; settings: Ambrosia artemisiifolia, post-emergence, 240 h, 0 to 100 scale, read-out: Plant response rating, Ragweed
Procedure, shortened: as §1

[4] = system: wheat (Triticum aestivum); assay: Test A postemergence; settings: Triticum aestivum, post-emergence, 240 h, 0 to 100 scale, read-out: Plant response rating, Wheat
Procedure, shortened: as §1

[5] = system: barnyardgrass (Echinochloa crus-galli); assay: Test A postemergence; settings: Echinochloa crus-galli, post-emergence, 240 h, 0 to 100 scale, read-out: Plant response rating, Barnyardgrass
Procedure, shortened: as §1

[6] = system: Italian ryegrass (Lolium multiflorum); assay: Test A postemergence; settings: Lolium multiflorum, post-emergence, 240 h, 0 to 100 scale, read-out: Plant response rating, Ryegrass, Italian
Procedure, shortened: as §1

[7] = system: giant foxtail (Setaria faberii); assay: Test A postemergence; settings: Setaria faberi, post-emergence, 240 h, 0 to 100 scale, read-out: Plant response rating, Foxtail, Giant
Procedure, shortened: as §1

kochia (Kochia scoparia) [8] = assay: Test A postemergence; settings: Bassia scoparia, post-emergence, 240 h, 0 to 100 scale, read-out: Plant response rating, Kochia
Procedure, shortened: as §1

corn (Zea mays) = assay: Test A postemergence; settings: Zea mays, post-emergence, 240 h, 0 to 100 scale
Procedure, shortened: as §1

[9] = system: galium (catchweed bedstraw, Galium aparine); assay: Test A postemergence; settings: Galium, post-emergence, 240 h, 0 to 100 scale, read-out: Plant response rating, Galium
Procedure, shortened: as §1

[10] = system: pigweed (Amaranthus retroflexus); assay: Test A preemergence; settings: Amaranthus retroflexus, pre-emergence, 240 h
Procedure, shortened: as §1

[11] = system: ragweed (common ragweed, Ambrosia elatior); assay: Test A preemergence; settings: Ambrosia artemisiifolia, pre-emergence, 240 h
Procedure, shortened: as §1

[12] = system: barnyardgrass (Echinochloa crus-galli); assay: Test A preemergence; settings: Echinochloa crus-galli, pre-emergence, 240 h
Procedure, shortened: as §1

[13] = system: Italian ryegrass (Lolium multiflorum); assay: Test A preemergence; settings: Lolium multiflorum, pre-emergence, 240 h
Procedure, shortened: as §1

[14] = system: giant foxtail (Setaria faberii); assay: Test A preemergence; settings: Setaria faberi, pre-emergence, 240 h
Procedure, shortened: as §1

kochia (Kochia scoparia) [15] = assay: Test A preemergence; settings: Bassia scoparia, pre-emergence, 240 h
Procedure, shortened: as §1

[16] = system: lambsquarters (Chenopodium album); assay: Test C preemergence; settings: Chenopodium album, pre-emergence, 336 h, scale 0 to 100, read-out: Plant response rating, Lambsquarters
Procedure, shortened: (§2)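 Seeded loam-sand soil (preemergence) or young potted plants of 2-18 cm (postemergence) received test chemical formulated with surfactant in a non-phytotoxic solvent. Pots were kept in the greenhouse for 13-15 days before a visual 0-100 control rating relative to controls.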

[17] = system: yellow nutsedge (Cyperus esculentus); assay: Test C preemergence; settings: Cyperus, pre-emergence, 336 h, scale 0 to 100, read-out: Plant response rating, Nutsedge, Yellow
Procedure, shortened: as §2

[18] = system: galium (catchweed bedstraw, Galium aparine); assay: Test C preemergence; settings: Galium, pre-emergence, 336 h, scale 0 to 100, read-out: Plant response rating, Galium
Procedure, shortened: as §2

rice (Oryza sativa) = assay: Test B flooded paddy; settings: Oryza sativa, 336 h; 250 g ai/ha, Flood, 13 to 15 days, scale 0 (no effect) to 100 (complete control); read-out: Plant response rating, Rice
Procedure, shortened: (§3)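 Under a constant 3 cm flood, test compounds went directly into the paddy water. Following 13 to 15 days of greenhouse growth, treated species and controls were compared by eye.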

[19] = system: barnyardgrass (Echinochloa crus-galli); assay: Test B flooded paddy; settings: Echinochloa crus-galli, 336 h; 250 g ai/ha, Flood, 13 to 15 days, scale 0 (no effect) to 100 (complete control); read-out: Plant response rating, Barnyardgrass
Procedure, shortened: as §3

[20] = system: sedge, umbrella (small-flower umbrella sedge, Cyperus difformis); assay: Test B flooded paddy; settings: Cyperus difformis, 336 h; 250 g ai/ha, Flood, 13 to 15 days, scale 0 (no effect) to 100 (complete control); read-out: Plant response rating, Sedge, Umbrella
Procedure, shortened: as §3

[21] = system: ducksalad (Heteranthera limosa); assay: Test B flooded paddy; settings: Heteranthera limosa, 336 h; 250 g ai/ha, Flood, 13 to 15 days, scale 0 (no effect) to 100 (complete control); read-out: Plant response rating, Ducksalad
Procedure, shortened: as §3

FC(F)c1cccc(Oc2ncc(Cl)cn2)c1Oc1ncc(Cl)cn1 [Compound 46, 2,2′-[[3-(difluoromethyl)-1,2-phenylene]bis(oxy)]bis[5-chloropyrimidine]]
pest or weed control at 125 g/ha ([1]; 125 g ai/ha): 100% | pest or weed control at 500 g/ha ([1]; 500 g ai/ha): 100% | pest or weed control at 125 g/ha ([2]; 125 g ai/ha): 90% | pest or weed control at 500 g/ha ([2]; 500 g ai/ha): 100% | pest or weed control at 125 g/ha ([3]; 125 g ai/ha): 100% | pest or weed control at 500 g/ha ([3]; 500 g ai/ha): 100% | plant injury at 125 g/ha ([4]; 125 g ai/ha): 50% | plant injury at 500 g/ha ([4]; 500 g ai/ha): 100% | pest or weed control at 125 g/ha ([5]; 125 g ai/ha): 90% | pest or weed control at 500 g/ha ([5]; 500 g ai/ha): 100% | pest or weed control at 125 g/ha ([6]; 125 g ai/ha): 90% | pest or weed control at 500 g/ha ([6]; 500 g ai/ha): 100% | pest or weed control at 125 g/ha ([7]; 125 g ai/ha): 90% | pest or weed control at 500 g/ha ([7]; 500 g ai/ha): 100% | pest or weed control at 125 g/ha (kochia (Kochia scoparia) [8]; 125 g ai/ha): 100% | pest or weed control at 500 g/ha (kochia (Kochia scoparia) [8]; 500 g ai/ha): 60% | Corn plant response rating (crop injury, 0 = no effect, 100 = complete kill) at 125 g/ha (corn (Zea mays); 125 g ai/ha): 90% | Corn plant response rating (crop injury, 0 = no effect, 100 = complete kill) at 500 g/ha (corn (Zea mays); 500 g ai/ha): 100% | pest or weed control at 125 g/ha ([9]; 125 g ai/ha): 100% | pest or weed control at 500 g/ha ([9]; 500 g ai/ha): 100% | pest or weed control at 125 g/ha ([10]; 125 g ai/ha, 0 to 100 scale (0 no effect, 100 complete control), read-out: Pigweed plant response rating): 100% | pest or weed control at 500 g/ha ([10]; 500 g ai/ha, 0 to 100 scale, read-out: Plant response rating, Pigweed): 100% | pest or weed control at 125 g/ha ([11]; 125 g ai/ha, 0 to 100 scale (0 no effect, 100 complete control), read-out: Ragweed plant response rating): 90% | pest or weed control at 500 g/ha ([11]; 500 g ai/ha, 0 to 100 scale, read-out: Plant response rating, Ragweed): 100% | pest or weed control at 125 g/ha ([12]; 125 g ai/ha, 0 to 100 scale (0 no effect, 100 complete control), read-out: Barnyardgrass plant response rating): 90% | pest or weed control at 500 g/ha ([12]; 500 g ai/ha, 0 to 100 scale, read-out: Plant response rating, Barnyardgrass): 100% | pest or weed control at 125 g/ha ([13]; 125 g ai/ha, 0 to 100 scale (0 no effect, 100 complete control), read-out: Ryegrass, Italian plant response rating): 30% | pest or weed control at 500 g/ha ([13]; 500 g ai/ha, 0 to 100 scale, read-out: Plant response rating, Ryegrass, Italian): 80% | pest or weed control at 125 g/ha ([14]; 125 g ai/ha, 0 to 100 scale (0 no effect, 100 complete control), read-out: Foxtail, Giant plant response rating): 100% | pest or weed control at 500 g/ha ([14]; 500 g ai/ha, 0 to 100 scale, read-out: Plant response rating, Foxtail, Giant): 100% | pest or weed control at 125 g/ha (kochia (Kochia scoparia) [15]; 125 g ai/ha, 0 to 100 scale (0 no effect, 100 complete control), read-out: Kochia plant response rating): 100% | pest or weed control at 500 g/ha (kochia (Kochia scoparia) [15]; 500 g ai/ha, 0 to 100 scale, read-out: Plant response rating, Kochia): 100% | pest or weed control at 31 g/ha ([16]; 31 g ai/ha, preemergence): 100% | pest or weed control at 62 g/ha ([16]; 62 g ai/ha, preemergence): 100% | pest or weed control at 125 g/ha ([16]; 125 g ai/ha, preemergence): 100% | pest or weed control at 16 g/ha ([16]; Preemergence, 16 g ai/ha): 75% | pest or weed control at 31 g/ha ([17]; 31 g ai/ha, preemergence): 35% | pest or weed control at 62 g/ha ([17]; 62 g ai/ha, preemergence): 55% | pest or weed control at 125 g/ha ([17]; 125 g ai/ha, preemergence): 80% | pest or weed control at 16 g/ha ([17]; Preemergence, 16 g ai/ha): 0% | pest or weed control at 31 g/ha ([18]; 31 g ai/ha, preemergence): 85% | pest or weed control at 62 g/ha ([18]; 62 g ai/ha, preemergence): 95% | pest or weed control at 125 g/ha ([18]; 125 g ai/ha, preemergence): 100% | pest or weed control at 16 g/ha ([18]; Preemergence, 16 g ai/ha): 5% | plant injury at 250 g/ha (rice (Oryza sativa)): 10% | pest or weed control at 250 g/ha [19]: 0% | pest or weed control at 250 g/ha [20]: 65% | pest or weed control at 250 g/ha [21]: 80%
